From US8932613B2, “Ectoparasite control method” (E I du Pont de Nemours and Company, priority 2007, dated 2015)

Key:
[1] = tested on: Adult A. aegypti; test: Adult A. aegypti contact assay; conditions: treated flask base, bioassay run for 8 hrs
Protocol: Adult A. aegypti were exposed to six rates of the positive control compound permethrin and the experimental compounds diluted with acetone. The dilutions of test compound (3-bromo-1-(3-chloro-2-pyridinyl)-N-[4-cyano-2-methyl-6-[(methylamino)carbonyl]phenyl]-1H-pyrazole-5-carboxamide)used were 0 ppm (acetone only), 0.1 ppm, 1 ppm, 10 ppm, 20 ppm, 50 ppm, 100 ppm, 500 ppm and 1000 ppm. Each rate was replicated 5 times. The test was conducted in 100 mL conical flasks. The entire inside of the flasks was coated with Coatasil the day before the treatments are applied. A 0.5 ml aliquot of each rate was applied to the bases only of the flasks. At 24 hours after the surfaces had been treated adult A. aegypti were anaesthetised using food grade carbon dioxide and 10 mosquitoes were introduced to each conical flask and the mouths of the flasks covered with parafilm. Small holes were made in the parafilm to allow gas exchange. The bioassay was run for 8 hrs at 25±2° C. and relative humidity of approximately 70%.

[2] = tested on: cat flea (Ctenocephalides felis Bouche); test: In vivo evaluation against artificial infestations with cat fleas on mice; conditions: CD-1 mouse, 10 mg/kg oral in propylene glycol/glycerol formal (60:40), fleas applied 2 h after dosing, evaluated 48 hours after flea application
Protocol: For evaluating control of the cat flea (Ctenocephalides felis Bouche), a CD-1® mouse (about 30 g, male, obtained from Charles River Laboratories, Wilmington, Mass.) was orally dosed with test compound in an amount of 10 mg/kg solubilized in propylene glycol/glycerol formal (60:40). Two hours after oral administration of the test compound, approximately 8 to 16 adult fleas were applied to each mouse. The fleas were then evaluated for mortality 48 hours after flea application to the mouse.

[3] = tested on: adult H. irritans exigua; test: Adult H. irritans exigua feeding assay (blood meal assay); conditions: for mortality at 0.2 ppm: 200 ppb in bovine blood; for mortality at 0.4 ppm: 400 ppb in bovine blood; for mortality at 0.6 ppm: 600 ppb in bovine blood
Protocol: A blood meal assay was used to determine the LC50 for test compound (3-bromo-1-(3-chloro-2-pyridinyl)-N-[4-cyano-2-methyl-6-[(methylamino)carbonyl]phenyl]-1H-pyrazole-5-carboxamide) on adult H. irritans exigua. Six (6) serial dilutions of the test compound were prepared in decoagulated bovine blood that was stored refrigerated. Ivermectin was included as a positive control compound and a negative control was included in each assay. Flies were collected with a net immediately before each assay from yarded commercial cattle. About 100 adults were introduced into a mesh cage (30×30×30 cm) containing one cotton gauze (4×4×1 cm) soaked in one blood/insecticide concentration. There were 3 replicate cages of each blood/insecticide concentration. Blood gauzes were replaced every 12 hours. The untreated control cages received untreated decoagulated blood. All cages were labelled and stored for 72 hours at 25-27° C. in the dark at ambient relative humidity (70-85%). […] At 72-96 hours all flies were counted and percentage mortality was calculated. Data was subjected to log-probit analysis to determine the LC50 if there is a dose response in the assay.

[4] = tested on: Brown Dog Ticks (R. sanguineus); test: In vivo evaluation against artificial infestations with brown dog ticks on dogs; conditions: topical, test compound 60 mg/kg line-on in NMP, 9 days post-treatment
From the text: Twenty five dogs were used in this study that investigated the efficacy of test compound (3-bromo-1-(3-chloro-2-pyridinyl)-N-[4-cyano-2-methyl-6-[(methylamino)carbonyl]phenyl]-1H-pyrazole-5-carboxamide)
against fleas and ticks. Two groups (one treated and one untreated) of five dogs were used to evaluate the flea efficacy whilst two groups of five dogs (one treated and one untreated) were used to investigate the tick efficacy. The dogs in the respective groups were infested weekly with 40 unfed adult ticks and 100 cat fleas. One group was treated with ADVANTIX and served as a positive control. The dogs in this group were infested simultaneously with fleas and ticks. Test compound was formulated in NMP. The treatment was applied topically via syringe on the dorsal line of the animals as a line-on at 60 mg/kg dose rate. The efficacy of the compound was assessed by weekly tick and flea counts. The weekly counts generated in the treated groups were compared to the positive and negative untreated control (UTC) group counts to evaluate efficacy of Test compound.

| Compound | LC90 [1] [ug/flask] | flea mortality [2] [%] | mortality at 0.2 ppm ([3]; exposure time 7 hr) [%] | mortality at 0.2 ppm ([3]; exposure time 17 hr) [%] | mortality at 0.2 ppm ([3]; exposure time 24 hr) [%] | mortality at 0.4 ppm ([3]; exposure time 7 hr) [%] | mortality at 0.4 ppm ([3]; exposure time 17 hr) [%] | mortality at 0.4 ppm ([3]; exposure time 24 hr) [%] | mortality at 0.6 ppm ([3]; exposure time 7 hr) [%] | mortality at 0.6 ppm ([3]; exposure time 17 hr) [%] | mortality at 0.6 ppm ([3]; exposure time 24 hr) [%] | efficacy against ticks [4] |
| --- | --- | --- | --- | --- | --- | --- | --- | --- | --- | --- | --- | --- |
| CC1(C)C(C=C(Cl)Cl)C1C(=O)OCc1cccc(Oc2ccccc2)c1 (stereo not shown) [Permethrin, reference compound] | 0.046 |  |  |  |  |  |  |  |  |  |  |  |
| CNC(=O)c1cc(C#N)cc(C)c1NC(=O)c1cc(Br)nn1-c1ncccc1Cl [Test compound, 3-bromo-1-(3-chloro-2-pyridinyl)-N-[4-cyano-2-methyl-6-[(methylamino)carbonyl]phenyl]-1H-pyrazole-5-carboxamide] | 0.033 | 45 | 77.3 | 78.8 | 80.3 | 78.8 | 89.8 | 94.9 | 80.5 | 94.7 | 96.5 | over 94.9% |
